In publication PMC9268243, “Metabolic Behaviors of Aconitum Alkaloids in Different Concentrations of Aconiti Lateralis Radix Praeparata and Effects of Aconitine in Healthy Human and Long QT Syndrome Cardiomyocytes” (Molecules, 2022):
Read-outs that look alike come from different tables or passages of the source.

Assays:
[1] = test system: normal hiPSC-CMs; assay: Impedance beating recordings (cell index, beat rate, amplitude), normal hiPSC-CMs; format: cell-based, human
Protocol: (§1) HiPSCs derived from healthy controls (Cat: NC20010002; Lot.HJ210577NC22), or patients (Cat. NC20300002; Lot. CP210578NC04) diagnosed with LQT syndrome was maintained in HELP4004 (HELP, Nanjing, China) medium on Matrigel-coated (BD Bio science, San Jose, CA, USA) plates at 37 °C; with 5% CO2 (v/v).
(§2) The cardiomyocytes were seeded on Nanion CardioExcyte 96 Sensor Plates (NSP-96, Nanion Technologies, Munich, Germany) after 0.1% gelatin coating for 1 h. The initial volume was 200 μL per well and contained approximately […]. After seeding, the NSP-96 and CardioExcyte 96 were returned to the incubator. All cells were replaced with fresh medium 200 μL per well every 48 h and tested after 168 h. Cellular index, beat rate, base impedance and beat amplitude were monitored in this experiment.
(§3) Isoproterenol, nifedipine, and AC were purchased from Sigma-Aldrich, which were resolved in DMSO (Sigma-Aldrich, D2650). Drug compounds final concentration were AC (0.05, 0.5,5 μM), nifedipine (1 μM), isoproterenol (3 μM), respectively. Dilutions were prepared within 60 min of treatment. All the compound solutions were subjected to regular 10 min ultrasound and oscillations to ensure that compounds were completely dissolved. Equal amounts of DMSO (0.1%) were used as the vehicle controls.

[2] = test system: LQT syndrome hiPSC-CMs; assay: Impedance beating recordings (cell index, beat rate, amplitude), LQT syndrome hiPSC-CMs; format: cell-based, human
Protocol: as §1, §2, §3

[3] = test system: normal hiPSC-CMs; assay: Whole-cell current-clamp action potential recording, normal hiPSC-CMs; format: cell-based, human; details: normal hiPSC-CMs, 0.05, 0.5 and 5 μM, 1 Hz stimulation
Description: (§4) Standard patch-clamp techniques were used to record action potentials, and L-type calcium currents. Composition of intracellular fluid and extracellular fluid were shown in Table 7 and Table 8, respectively. The signal was amplified using an HEKA EPC-10 patch-clamp amplifier (HEKA, Electronics, Ludwigshafen, Germany) and low-pass filtered at 5 kHz. Patch pipettes were fabricated from glass capillaries using a Sutter P-97 microelectrode puller (Novato, CA, USA) and the tips were heat polished with a microforge (NARISHIGE MF-900) to gain a resistance of 2–5 MΩ. Data acquisition was achieved using HEKA Patchmaster (V2x73.2). Data analysis and fit were performed using Clamfit and Graphpad Prism 6.0. The experiment was conducted at 37 °C. One cell can test one or more drugs, or multiple concentrations of the same drug but needs to be rinsed with extracellular fluid between each test. Nifedipine (Sigma) was used as a positive control to ensure cell quality. External solution containing 0.1% DMSO was applied as vehicle to establish the baseline. Recording was done at a temperature-controlled room of 35–37 degrees Celsius.
(§5) Isoproterenol, nifedipine, and AC were purchased from Sigma-Aldrich, which were resolved in DMSO (Sigma-Aldrich, D2650). Drug compounds final concentration were AC (0.05, 0.5,5 μM), nifedipine (1 μM), isoproterenol (3 μM), respectively. […]

[4] = test system: LQTS hiPSC-CMs; assay: Whole-cell current-clamp action potential recording, LQTS hiPSC-CMs; format: cell-based, human; details: LQTS hiPSC-CMs, 0.05, 0.5 and 5 μM, 1 Hz stimulation
Description: as §4, §5

[5] = test system: normal hiPSC-CMs; assay: Ca2+ imaging of calcium transients, normal hiPSC-CMs; format: cell-based, human; details: compared with the control group
Protocol: (§6) Dissociated day 30–33 post-differentiation hiPSC-CMs (healthy and LQT specific patient) were reseeded Matrigel-coated plate in HELP4004 (HELP) and were treated with 5 μM Fluo-3 AM and 0.02% Pluronic (Life Technologies) in DMEM/F12 (Gibco) for 60 min at 37 °C. Cells were washed with DMEM/F12 without fluorochrome solution afterwards for 30 min, replaced the solution with Tyrode’s solution. Ca^2+ imaging was conducted using Olympus IX71 confocal microscope (Olympus IX71, Tokyo, Japan) and analyzed using Olympus imaging software. Ca^2+ spontaneous transients were obtained using a single cell line scan mode at 37 °C.
as §3

[6] = test system: LQT syndrome hiPSC-CMs; assay: Ca2+ imaging of calcium transients, LQT syndrome hiPSC-CMs; format: cell-based, human; details: cardiomyocytes of LQTS, 5 μM
Protocol: as §6, §3

[7] = biological target: T1, L-type calcium current (ICa,L) in normal hiPSC-CMs (Homo sapiens, UniProt Q13936); assay: Patch-clamp L-type calcium current, normal hiPSC-CMs; format: cell-based
T1 construct: endogenous in cells; host or cells: normal hiPSC-derived cardiomyocytes (hiPSC-CMs)
T1 sequence (Q13936 whole entry): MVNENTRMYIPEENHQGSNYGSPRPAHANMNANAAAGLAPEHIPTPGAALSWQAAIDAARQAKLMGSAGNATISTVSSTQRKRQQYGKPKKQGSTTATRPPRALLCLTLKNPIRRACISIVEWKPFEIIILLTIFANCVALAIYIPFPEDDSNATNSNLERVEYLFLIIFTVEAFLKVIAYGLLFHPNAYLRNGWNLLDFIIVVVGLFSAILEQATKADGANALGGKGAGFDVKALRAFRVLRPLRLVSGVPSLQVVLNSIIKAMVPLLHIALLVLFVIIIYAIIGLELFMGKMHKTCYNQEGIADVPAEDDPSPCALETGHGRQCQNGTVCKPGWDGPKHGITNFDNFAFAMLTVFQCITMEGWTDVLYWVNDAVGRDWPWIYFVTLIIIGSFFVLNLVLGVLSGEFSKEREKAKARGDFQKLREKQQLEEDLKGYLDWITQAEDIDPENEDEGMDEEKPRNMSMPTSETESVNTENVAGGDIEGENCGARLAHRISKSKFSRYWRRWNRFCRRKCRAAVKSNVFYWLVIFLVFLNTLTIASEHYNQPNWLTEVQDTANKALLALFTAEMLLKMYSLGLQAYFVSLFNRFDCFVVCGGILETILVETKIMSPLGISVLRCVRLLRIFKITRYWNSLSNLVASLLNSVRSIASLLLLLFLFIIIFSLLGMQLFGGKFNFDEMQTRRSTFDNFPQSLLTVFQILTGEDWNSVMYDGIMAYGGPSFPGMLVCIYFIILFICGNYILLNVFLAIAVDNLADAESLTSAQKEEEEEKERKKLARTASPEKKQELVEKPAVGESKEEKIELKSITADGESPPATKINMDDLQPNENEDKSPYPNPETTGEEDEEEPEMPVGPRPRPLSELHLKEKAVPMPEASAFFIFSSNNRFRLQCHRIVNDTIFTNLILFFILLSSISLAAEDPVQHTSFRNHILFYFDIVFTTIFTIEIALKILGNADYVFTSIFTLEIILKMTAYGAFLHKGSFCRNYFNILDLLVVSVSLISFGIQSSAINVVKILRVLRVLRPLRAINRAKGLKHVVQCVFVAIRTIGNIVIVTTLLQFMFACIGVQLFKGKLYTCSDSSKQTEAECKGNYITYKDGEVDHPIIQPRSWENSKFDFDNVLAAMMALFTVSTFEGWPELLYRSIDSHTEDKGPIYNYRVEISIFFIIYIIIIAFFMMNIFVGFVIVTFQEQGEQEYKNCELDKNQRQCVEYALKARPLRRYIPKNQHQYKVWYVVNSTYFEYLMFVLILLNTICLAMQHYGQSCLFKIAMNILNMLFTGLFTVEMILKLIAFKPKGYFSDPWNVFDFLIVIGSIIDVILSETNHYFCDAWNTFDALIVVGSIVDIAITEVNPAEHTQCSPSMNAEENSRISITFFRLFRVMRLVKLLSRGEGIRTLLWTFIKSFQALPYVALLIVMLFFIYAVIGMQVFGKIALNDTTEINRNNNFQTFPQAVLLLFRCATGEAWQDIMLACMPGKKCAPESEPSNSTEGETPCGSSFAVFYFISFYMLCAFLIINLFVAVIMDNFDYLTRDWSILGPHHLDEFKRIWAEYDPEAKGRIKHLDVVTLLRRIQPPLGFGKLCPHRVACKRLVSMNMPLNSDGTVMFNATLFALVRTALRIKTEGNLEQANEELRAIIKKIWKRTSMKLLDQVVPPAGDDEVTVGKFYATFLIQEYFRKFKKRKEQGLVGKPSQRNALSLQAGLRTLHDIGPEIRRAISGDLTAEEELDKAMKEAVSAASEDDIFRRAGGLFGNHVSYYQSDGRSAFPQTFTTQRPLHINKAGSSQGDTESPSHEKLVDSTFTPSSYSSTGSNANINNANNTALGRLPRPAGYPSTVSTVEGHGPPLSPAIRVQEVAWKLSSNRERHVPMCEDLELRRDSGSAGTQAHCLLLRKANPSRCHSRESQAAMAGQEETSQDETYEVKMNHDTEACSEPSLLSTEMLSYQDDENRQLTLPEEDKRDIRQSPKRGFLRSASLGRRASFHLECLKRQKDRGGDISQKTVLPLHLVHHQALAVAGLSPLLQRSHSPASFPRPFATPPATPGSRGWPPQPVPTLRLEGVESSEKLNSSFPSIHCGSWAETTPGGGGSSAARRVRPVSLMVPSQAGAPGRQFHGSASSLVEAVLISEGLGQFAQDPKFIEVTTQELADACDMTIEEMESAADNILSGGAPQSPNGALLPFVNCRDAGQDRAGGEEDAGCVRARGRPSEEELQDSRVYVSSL
T1 sequence (Q08289 whole entry partner): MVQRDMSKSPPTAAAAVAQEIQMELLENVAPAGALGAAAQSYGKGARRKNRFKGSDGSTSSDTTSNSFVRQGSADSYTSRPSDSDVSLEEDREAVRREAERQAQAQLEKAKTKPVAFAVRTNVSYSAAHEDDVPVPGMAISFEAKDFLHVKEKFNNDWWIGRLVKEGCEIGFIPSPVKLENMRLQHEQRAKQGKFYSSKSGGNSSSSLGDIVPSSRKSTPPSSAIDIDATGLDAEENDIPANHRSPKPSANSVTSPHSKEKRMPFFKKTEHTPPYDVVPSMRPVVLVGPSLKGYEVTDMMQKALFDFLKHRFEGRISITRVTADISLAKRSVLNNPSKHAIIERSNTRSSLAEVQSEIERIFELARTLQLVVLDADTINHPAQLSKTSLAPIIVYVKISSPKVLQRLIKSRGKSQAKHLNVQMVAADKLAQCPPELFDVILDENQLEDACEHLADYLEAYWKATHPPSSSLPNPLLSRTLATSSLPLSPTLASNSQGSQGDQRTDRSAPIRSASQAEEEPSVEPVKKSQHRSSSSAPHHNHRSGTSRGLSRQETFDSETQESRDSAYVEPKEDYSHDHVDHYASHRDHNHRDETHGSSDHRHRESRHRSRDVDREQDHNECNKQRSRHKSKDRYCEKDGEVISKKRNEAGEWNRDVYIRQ
T1 sequence (P54289 25-956 partner limits assumed): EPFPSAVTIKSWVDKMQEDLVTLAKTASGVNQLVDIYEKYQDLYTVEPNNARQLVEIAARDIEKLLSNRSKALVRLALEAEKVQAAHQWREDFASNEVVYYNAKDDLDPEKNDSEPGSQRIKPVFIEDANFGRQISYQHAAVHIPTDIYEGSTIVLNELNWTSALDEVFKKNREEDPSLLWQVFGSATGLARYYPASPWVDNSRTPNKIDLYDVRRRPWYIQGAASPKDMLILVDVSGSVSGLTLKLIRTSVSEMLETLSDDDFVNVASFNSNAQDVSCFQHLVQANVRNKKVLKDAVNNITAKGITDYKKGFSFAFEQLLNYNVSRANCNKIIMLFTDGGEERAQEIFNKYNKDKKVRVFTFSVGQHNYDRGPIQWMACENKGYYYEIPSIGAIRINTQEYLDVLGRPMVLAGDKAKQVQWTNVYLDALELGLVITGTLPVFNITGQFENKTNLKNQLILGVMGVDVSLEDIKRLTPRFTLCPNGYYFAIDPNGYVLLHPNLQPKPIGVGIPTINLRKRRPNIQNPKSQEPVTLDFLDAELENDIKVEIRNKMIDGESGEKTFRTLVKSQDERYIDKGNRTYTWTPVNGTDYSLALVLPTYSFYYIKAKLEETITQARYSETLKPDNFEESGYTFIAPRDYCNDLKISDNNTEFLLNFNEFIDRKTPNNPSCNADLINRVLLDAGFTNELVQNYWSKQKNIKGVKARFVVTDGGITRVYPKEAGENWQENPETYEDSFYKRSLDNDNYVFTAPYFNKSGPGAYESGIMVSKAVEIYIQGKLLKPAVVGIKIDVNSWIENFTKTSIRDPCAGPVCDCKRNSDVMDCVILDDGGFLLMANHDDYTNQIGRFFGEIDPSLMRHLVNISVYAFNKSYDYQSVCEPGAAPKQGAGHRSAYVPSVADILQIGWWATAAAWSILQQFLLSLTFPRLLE
T1 sequence (P54289 957-1103 partner limits assumed): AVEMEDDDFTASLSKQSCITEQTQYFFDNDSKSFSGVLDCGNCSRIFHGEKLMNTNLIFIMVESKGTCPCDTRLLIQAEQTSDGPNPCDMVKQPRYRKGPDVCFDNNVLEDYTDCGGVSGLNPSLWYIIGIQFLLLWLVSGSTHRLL
Description: as §4, §3

[8] = biological target: T2, L-type calcium current (ICa,L) in LQTS hiPSC-CMs (Homo sapiens, UniProt Q13936); assay: Patch-clamp L-type calcium current, LQTS hiPSC-CMs; format: cell-based
T2 construct: endogenous in cells; host or cells: LQTS patient-derived hiPSC cardiomyocytes
T2 sequence (Q13936 whole entry): as the sequence (Q13936 whole entry) above
T2 sequence (Q08289 whole entry partner): as the sequence (Q08289 whole entry partner) above
T2 sequence (P54289 25-956 partner limits assumed): as the sequence (P54289 25-956 partner limits assumed) above
T2 sequence (P54289 957-1103 partner limits assumed): as the sequence (P54289 957-1103 partner limits assumed) above
Description: as §4, §3

[9] = test system: myocardial cells; design: method as in our previous work; details: low doses 5–20 nmol/L, ref our previous work; cited from earlier work
[10] = test system: rats; details: cited from earlier work
[11] = test system: CYP3A4; details: in vivo; cited from earlier work
[12] = LQT hiPSC-CMs, 0.05 μM, versus control group

Compound: CCN1C[C@]2(COC)[C@H](O)C[C@H](OC)[C@@]34[C@@H]5C[C@@]6(O)[C@H](OC(=O)c7ccccc7)[C@@H]5[C@@](OC(C)=O)([C@@H]([C@H](OC)[C@H]23)[C@@H]14)[C@@H](O)[C@@H]6OC [AC, aconitine]
- amplitude ([1]; normal hiPSC-CMs): concentration-dependently decreased
- cell index ([1]; normal hiPSC-CMs): no significant effect
- cell beat rate ([1]; normal hiPSC-CMs, 0.5 μM): faster after 12 h
- cell contractility ([1]; normal hiPSC-CMs, 0.5 μM): decreased cell contractility
- cell frequency ([1]; normal hiPSC-CMs, 0.5 μM): increased cell frequency
- cell contractility ([1]; normal hiPSC-CMs, 5 μM, very weak within 6 h after treatment): significantly reduced
- cardiomyocyte death ([1]; normal hiPSC-CMs, 0.05, 0.5 and 5 μM, 48 h observation period): None of the three concentrations (0.05, 0.5, and 5 μM) AC caused cardiomyocyte death
- contraction force ([1]; normal hiPSC-CMs, versus control group, concentration not given): slightly lower
- contraction force [2, 12]: lower contraction force
- contraction frequency [2, 12]: higher contraction frequency
- cell frequency ([2]; LQT hiPSC-CMs, 0.5 μM): significantly increased
- contractility ([2]; LQT hiPSC-CMs, 0.5 μM): significantly increased
- cell contractility ([2]; LQT hiPSC-CMs, 5 μM, very weak within 30 h after treatment): decreased to zero
- myocardial cell death ([2]; LQT hiPSC-CMs, three concentrations (0.05, 0.5, 5 μM), 48 h observation period): None of the three concentrations caused significant myocardial cell death
- cell index ([2]; LQTS hiPSC-CMs, 5.0 μM, between 5–30 min): decreased the cell index
- APD50 [3]: concentration-dependently shortened
- APD50 [4]: concentration-dependently shortened
- amplitude and frequency of calcium transient [5]: no significant effect
- frequency of calcium transient [6]: significantly increase
- IC50 ([7]; normal (control) hiPSC-CMs, tested 0.05–5 μM, no concentration dependence, read-out: IC50, inhibition of L-type calcium current): > 5 µM
- peak value of L-type calcium current ([7]; normal group, 0.05–5 μM): significantly decreased
- IC50 ([7]; normal hiPSC-CMs, estimated beyond tested range 0.05–5 μM, read-out: IC50 (eIC50) on ICa,L): 27.5 µM
- peak value of L-type calcium current ([8]; LQT group, 0.05–5 μM): significantly decreased
- IC50 ([8]; LQT hiPSC-CMs, tested 0.05–5 μM, no concentration dependence, read-out: IC50, inhibition of L-type calcium current): > 5 µM
- IC50 ([8]; LQTS hiPSC-CMs, estimated beyond tested range 0.05–5 μM, read-out: IC50 (eIC50) on ICa,L): 27.2 µM
- mitochondrial energy metabolism [9]: could improve mitochondrial energy metabolism
- toxic cardiovascular effects ([10]; oral 0.4 mg/kg): arrhythmia, lower heart rate, and blood pressure, were observed
- toxic cardiovascular effects ([10]; oral low-dose 0.1 mg/kg): not found
- main CYP 450 subtype for alkaloid metabolism [11]: CYP3A4
